Measured values taken from PMC11301636, “Supramolecular delivery of dinuclear ruthenium and osmium MCU inhibitors” (Inorganic Chemistry Frontiers, 2024).

Key:
[1] = target: T1, mitochondrial calcium uniporter (MCU) (Homo sapiens, UniProt Q8NE86); test: mCa2+ uptake inhibition in digitonin-permeabilized HEK293T cells (Calcium Green 5N); type: cell-based
T1 sequence (Q8NE86 51-351): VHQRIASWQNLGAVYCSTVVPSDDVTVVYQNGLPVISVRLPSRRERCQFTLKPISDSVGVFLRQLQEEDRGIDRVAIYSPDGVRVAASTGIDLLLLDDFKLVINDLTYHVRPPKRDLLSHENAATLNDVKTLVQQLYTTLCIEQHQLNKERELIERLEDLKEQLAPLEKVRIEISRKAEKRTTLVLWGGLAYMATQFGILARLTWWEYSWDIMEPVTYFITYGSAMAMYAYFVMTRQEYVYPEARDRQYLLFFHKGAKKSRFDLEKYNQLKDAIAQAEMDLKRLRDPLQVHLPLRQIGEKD

[2] = target: T1, mitochondrial calcium uniporter (MCU); test: mCa2+ uptake inhibition in digitonin-permeabilized HEK293T cells; type: cell-based

Os245
IC50 [1]: 5.7 ± 0.3 nM | IC50 [2]: 90.9 ± 1.3 nM
